Consider 38 molecules from the supplement of paper PMC8024199.

± gives the standard deviation of the averaged measurements.

Test in all cases: drug sensitivity score (DSS) (DSS score); higher = more sensitive (stronger growth inhibition); extreme values may be limits of the assay
In test [1] the test system is Ba/F3 P210-BCR-ABL1 RUNX1-/- (mouse). Summed up:
(§1)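 Mouse Ba/F3 cells, either CRISPR/Cas9-edited at a target exon or edited-control clones, were screened against a 528-compound library on pre-printed 384-well plates. Each compound was tested at five concentrations across a 10,000-fold range, with 10,000 cells per well in RPMI with 10% FBS for 72 h at 37 °C and 5% CO2. CellTiter-Glo luminescence was scaled between vehicle and positive-control wells, and each dose-response was summarised as a drug sensitivity score. Scores were averaged over two replicates.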

Test [2] relates to Ba/F3 P210-BCR-ABL1 RUNX1-/mut (mouse). Summed up: as §1
Test [3] relates to Ba/F3 P210-BCR-ABL1 RUNX1wt/wt control (mouse). Summed up:
as §1

Take `O=C(O)CCCCC(CCSCc1ccccc1)SCc1ccccc1` (centres undefined) [CPI-613]: the drug sensitivity score in test [1], in test [2] and in test [3] was 0 throughout.

For the molecule `CN(C)c1cc2c(cc1Sc1nc3c(N)nccc3n1CCNCC(C)(C)C)OCO2` [CUDC-305], the values for the drug sensitivity score in test [1], in test [2] and in test [3] were 18.3 ± 1.6, 16.9 ± 0.21 and 17.1 ± 0.21, respectively.

Regarding `COc1ccc(-c2nc(N3CCOCC3)c3sc(CN(C)c4ncc(C(=O)NO)cn4)cc3n2)cn1` [CUDC-907], the drug sensitivity score worked out at 40.9 ± 0.85 in test [1], 43.65 ± 0.35 in test [2] and 39 ± 0.57 in test [3].

As for `CO[C@H]1C(=O)[C@]2(C)[C@@H](OC)C[C@H]3OC[C@@]3(OC(C)=O)[C@H]2[C@H](OC(=O)c2ccccc2)[C@]2(O)C[C@H](OC(=O)[C@H](O)[C@@H](NC(=O)OC(C)(C)C)c3ccccc3)C(C)=C1C2(C)C` [Cabazitaxel], the drug sensitivity score in test [1] amounted to 35.9 ± 1.4; in test [2], 26.2 ± 3.5; in test [3], 13.55 ± 0.071.

For the molecule `COc1cc2nccc(Oc3ccc(NC(=O)C4(C(=O)Nc5ccc(F)cc5)CC4)cc3)c2cc1OC` [Cabozantinib], the results for the drug sensitivity score in test [1], in test [2] and in test [3] were 4.8 ± 0.85, 1.8 ± 1.6 and 0, respectively.

Regarding `CNC(=O)c1ccc(-c2cnc3ncc(Cc4ccc5ncccc5c4)n3n2)cc1F` [Capmatinib], the results for the drug sensitivity score in test [1], in test [2] and in test [3] were 0.2 ± 0.28, 0 and 0.25 ± 0.35, respectively.

As to `O=C(O)C1(C(=O)O)CCC1.[NH2-].[NH2-].[Pt+2]` [Carboplatin], the drug sensitivity score was 6.65 ± 1.8 in test [1], 6.9 ± 1.8 in test [2] and 3.45 ± 0.21 in test [3].

On to `COc1cc2c(Oc3ccc4[nH]c(C)cc4c3F)ncnc2cc1OCCCN1CCCC1` [Cediranib], for which the drug sensitivity score in test [1], in test [2] and in test [3] was 0 each time.

`CCS(=O)(=O)N1CCN(c2ccc(Nc3ncc(C(N)=O)c(NC4CC4)n3)cc2)CC1` [Cerdulatinib]: the drug sensitivity score in test [1] is 14.8 ± 0.64; in test [2], 13.1 ± 1.6; in test [3] it was 9.5 ± 0.42.

On to `Cc1cc(Nc2ncc(Cl)c(Nc3ccccc3S(=O)(=O)C(C)C)n2)c(OC(C)C)cc1C1CCNCC1` [Ceritinib], for which the values for the drug sensitivity score in test [1], in test [2] and in test [3] were 0.8 ± 1.1, 0.75 ± 1.1 and 1.35 ± 0.78, respectively.

Turning to `CCN(CC)CCCC(C)Nc1ccnc2cc(Cl)ccc12` (centres undefined) [Chloroquine], the values for the drug sensitivity score in test [1], in test [2] and in test [3] were 13.2 ± 5.2, 14.9 ± 5.6 and 5.8 ± 0.28, respectively.

Turning to `CC(C)[C@H]1C(=O)N[C@@H](CCCNC(=N)N)C(=O)NCC(=O)N[C@@H](CC(=O)O)C(=O)N[C@H](Cc2ccccc2)C(=O)N1C` [Cilengitide], the drug sensitivity score in test [1], in test [2] and in test [3] was 0 each time.

As to `N.N.[Cl][Pt][Cl]` [Cisplatin], the figures for the drug sensitivity score in test [1], in test [2] and in test [3] were 6.3 ± 1.4, 7 ± 1.6 and 5.5 ± 0.14, respectively.

For the molecule `CCN(CC)CCOc1ccc(C(=C(Cl)c2ccccc2)c2ccccc2)cc1` [Clomifene], the values for the drug sensitivity score in test [1], in test [2] and in test [3] were 6.5 ± 0.28, 8 ± 1.3 and 6.35 ± 0.49, respectively.

For `O=C(c1ccc(F)c(F)c1Nc1ccc(I)cc1F)N1CC(O)([C@@H]2CCCCN2)C1` [Cobimetinib], the drug sensitivity score was found to be 9.05 ± 0.78 in test [1], 4.6 ± 1.8 in test [2] and 0 in test [3].

As for `COc1c(OCCCN2CCOCC2)ccc2c1N=C(NC(=O)c1cnc(N)nc1)N1CCN=C21` [Copanlisib], the drug sensitivity score came out at 8.65 ± 1.5 in test [1], 6.1 ± 3.4 in test [2] and 1.4 ± 0.99 in test [3].

Take `CC1(COc2ccc3c(c2)ncn3-c2ccc3cccc(N4CCC(N)CC4)c3n2)COC1` [Crenolanib]: the drug sensitivity score came out at 12.8 ± 0.49 in test [1], 10.9 ± 1.5 in test [2] and 6.25 ± 0.49 in test [3].

Regarding `Nc1ccn([C@@H]2O[C@H](CO)[C@@H](O)[C@@H]2O)c(=O)n1` [Cytarabine], the drug sensitivity score in test [1] is 12.25 ± 0.071; in test [2] it was 8.25 ± 4; in test [3], 6.25 ± 0.071.

For `CC(C)(C)c1nc(-c2cccc(NS(=O)(=O)c3c(F)cccc3F)c2F)c(-c2ccnc(N)n2)s1` [Dabrafenib], the drug sensitivity score in test [1] was determined as 2.6 ± 0.85; in test [2], 0.05 ± 0.071; in test [3], 2.2 ± 0.42.

For `COc1cc2ncnc(Nc3ccc(F)c(Cl)c3)c2cc1NC(=O)/C=C/CN1CCCCC1` [Dacomitinib], the drug sensitivity score in test [1] turned out to be 1.05 ± 1.5; in test [2], 1.8 ± 2.3; in test [3] it was 0.25 ± 0.35.

Regarding `Cn1c(=O)n(-c2ccc(C(C)(C)C#N)cc2)c2c3cc(-c4cnc5ccccc5c4)ccc3ncc21` [Dactolisib], the results for the drug sensitivity score in test [1], in test [2] and in test [3] were 16.9 ± 0.42, 18.3 ± 0.28 and 14.4 ± 0.35, respectively.

As for `O=C(/C=C/c1cccnc1)NCCCCC1CCN(C(=O)c2ccccc2)CC1` [Daporinad], the figures for the drug sensitivity score in test [1], in test [2] and in test [3] were 19.4 ± 0.35, 20.5 ± 4.7 and 15.9 ± 0.71, respectively.

Consider `CCN(CC)CCN(Cc1ccc(-c2ccc(C(F)(F)F)cc2)cc1)C(=O)Cn1c(SCc2ccc(F)cc2)nc(=O)c2c1CCC2` [Darapladib], for which the drug sensitivity score in test [1] is 1.9 ± 0.14; in test [2] it was 2.65 ± 3.2; in test [3], 0.

As for `CC[C@@](C)(Nc1ccnc(-c2c[nH]c3ncccc23)n1)C(=O)NCC(F)(F)F` [Decernotinib], the drug sensitivity score was 0.5 ± 0.28 in test [1], 0 in test [2] and 0.55 ± 0.21 in test [3].

On to `CC(=O)N(O)CCCCCNC(=O)CCC(=O)N(O)CCCCCNC(=O)CCC(=O)N(O)CCCCCN` [Deferoxamine], for which the drug sensitivity score was found to be 6.9 ± 0.71 in test [1], 6.6 ± 1.4 in test [2] and 0.9 ± 0.99 in test [3].

With `C[C@H]1O[C@@H](O[C@H]2[C@@H](O)C[C@H](O[C@H]3[C@@H](O)C[C@H](O[C@H]4CC[C@@]5(C)[C@H](CC[C@@H]6[C@@H]5C[C@@H](O)[C@]5(C)[C@@H](C7=CC(=O)OC7)CC[C@]65O)C4)O[C@@H]3C)O[C@@H]2C)C[C@H](O)[C@@H]1O` [Digoxin], the drug sensitivity score in test [1] was found to be 0; in test [2] it was 0.05 ± 0.071; in test [3], 0.

With `CCc1cnn2c(NCc3ccc[n+]([O-])c3)cc(N3CCCC[C@H]3CCO)nc12` [Dinaciclib], the drug sensitivity score in test [1] amounted to 19.6 ± 2.3; in test [2] it was 19.9 ± 0.35; in test [3], 18.6 ± 0.78.

Regarding `Cc1ccc(-n2nc(C(C)(C)C)cc2NC(=O)Nc2ccc(OCCN3CCOCC3)c3ccccc23)cc1` [Doramapimod], the drug sensitivity score is 3.9 ± 0.57 in test [1], 2.85 ± 1.5 in test [2] and 0 in test [3].

On to `C[C@H](Nc1ncnc2nc[nH]c12)c1cc2cccc(Cl)c2c(=O)n1-c1ccccc1` [Duvelisib], for which the drug sensitivity score in test [1] turned out to be 2.6 ± 0.99; in test [2], 2.35 ± 3.3; in test [3] it was 0.

Consider `Cc1ccc(NS(=O)(=O)c2cccc(C#N)c2)c2[nH]cc(C#N)c12` [E7820], for which the drug sensitivity score in test [1] was 2 ± 0.99; in test [2], 5.45 ± 2; in test [3] it was 0.35 ± 0.21.

On to `Cc1cc(Nc2cc(N3CCN(C)CC3)nc(/C=C/c3ccccc3)n2)n[nH]1` [ENMD-2076], for which the figures for the drug sensitivity score in test [1], in test [2] and in test [3] were 9.4 ± 0.28, 8.45 ± 0.35 and 5.5 ± 0.85, respectively.

As for `Cc1cc(C)c(CNC(=O)c2cc(-c3ccc(CN4CCOCC4)cc3)cc3c2cnn3C2CCCC2)c(=O)[nH]1` [EPZ-5687], the values for the drug sensitivity score in test [1], in test [2] and in test [3] were 0.5 ± 0.71, 0.9 ± 1.3 and 0, respectively.

Regarding `NC(=O)/C(=C/n1cnc(-c2cc(C(F)(F)F)cc(C(F)(F)F)c2)n1)c1cncnc1` [Eltanexor], the drug sensitivity score in test [1] came out at 27.8 ± 0.14; in test [2] it was 27.2 ± 0.35; in test [3], 19.8 ± 0.99.

Regarding `CC(C)(O)CNc1nc(Nc2ccnc(C(F)(F)F)c2)nc(-c2cccc(C(F)(F)F)n2)n1` [Enasidenib], the drug sensitivity score was found to be 0.4 ± 0.14 in test [1], 0.55 ± 0.78 in test [2] and 0 in test [3].

For `COC(=O)N[C@@H](C)CNc1nccc(-c2cn(C(C)C)nc2-c2cc(Cl)cc(NS(C)(=O)=O)c2F)n1` [Encorafenib], the drug sensitivity score in test [1] amounted to 1.35 ± 0.071; in test [2], 2.15 ± 0.64; in test [3], 0.05 ± 0.071.

Consider `C[C@@H]1CN(C(=O)c2ccc(NC(=O)c3cc(O[C@H](C)c4c(Cl)ccc(F)c4Cl)c(N)nn3)cc2)C[C@H](C)N1` [Ensartinib], for which the values for the drug sensitivity score in test [1], in test [2] and in test [3] were 2.15 ± 0.92, 0.2 ± 0.28 and 0, respectively.

`c1cn2cc(-c3ccc4cn[nH]c4c3)nc(Nc3ccc(N4CCOCC4)cc3)c2n1` [Entospletinib]: the drug sensitivity score turned out to be 1.95 ± 1.3 in test [1], 1.35 ± 1.9 in test [2] and 0 in test [3].

Consider `CN1CCN(c2ccc(C(=O)Nc3n[nH]c4ccc(Cc5cc(F)cc(F)c5)cc34)c(NC3CCOCC3)c2)CC1` [Entrectinib], for which the drug sensitivity score is 0.25 ± 0.35 in test [1], 0.65 ± 0.92 in test [2] and 0 in test [3].
